Test results: US20240132431A1, “METHOD FOR ALKYLATING ACIDIC FUNCTIONAL GROUP” (Chugai Seiyaku Kabushiki Kaisha, priority 2021, published 2024)

Target: T1, Bcl-2 protein (Recombinant Human Bcl-2 Protein) (Homo sapiens, UniProt P10415)
T1 construct: purchased Novus NBP2-34889
Test: Binding evaluation of mixture library compounds to Bcl-2 using AS-MS (affinity selection mass spectrometry)
Settings: AS-MS on the mixture of 1200 library compounds, ASMS Ratio(%)=(A−C)/B×100; for ASMS ratio (%) n = 1: replicate n = 1; for ASMS ratio (%) n = 2: replicate n = 2
Method in brief: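 ASMS Ratio (%) was calculated as (A−C)/B×100, where A is the protein sample after SEC, B the protein-free sample without SEC and C the protein-free sample after SEC. Each compound was at […] in a 1200-member pool with 20 μM Bcl-2, incubated 1 h at 23° C.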

T1 sequence (P10415 whole entry): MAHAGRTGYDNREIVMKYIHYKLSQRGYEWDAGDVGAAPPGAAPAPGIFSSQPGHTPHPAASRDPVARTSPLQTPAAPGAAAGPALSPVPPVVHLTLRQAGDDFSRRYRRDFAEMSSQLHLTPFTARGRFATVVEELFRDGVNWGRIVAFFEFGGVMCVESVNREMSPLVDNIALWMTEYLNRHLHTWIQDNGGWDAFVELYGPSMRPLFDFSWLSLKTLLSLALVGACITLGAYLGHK

CCOc1cccc(-c2ccc(C(=O)N3CCN(c4ccc(C(=O)N(CC)CC)nn4)CC3)cc2C)c1 [B4J003-01, 6-[4-[4-(3-Ethoxyphenyl)-3-methylbenzoyl]piperazin-1-yl]-N,N-diethylpyridazine-3-carboxamide]
ASMS ratio (%) n = 1: 0.0%
ASMS ratio (%) n = 2: 0.0%

CCOc1cncc(-c2ccc(C(=O)N3CCN(c4ccc(C(=O)N(CC)CC)nn4)CC3)cc2C)c1 [B4J004-01, 6-[4-[4-(5-Ethoxypyridin-3-yl)-3-methylbenzoyl]piperazin-1-yl]-N,N-diethylpyridazine-3-carboxamide]
ASMS ratio (%) n = 1: −2.2%
ASMS ratio (%) n = 2: 0.4%

CCOc1cccc(-c2ccc(C(=O)N3CCN(c4ccc(C(=O)N(CC)CC)nn4)CC3)cc2F)c1 [B4J005-01, 6-[4-[4-(3-Ethoxyphenyl)-3-fluorobenzoyl]piperazin-1-yl]-N,N-diethylpyridazine-3-carboxamide]
ASMS ratio (%) n = 1: −0.4%
ASMS ratio (%) n = 2: 2.1%

CCOc1cccc(C#Cc2ccccc2C(=O)N2CCN(c3ccc(C(=O)N(CC)CC)nn3)CC2)c1 [B4J007-01, 6-[4-[2-[2-(3-Ethoxyphenyl)ethynyl]benzoyl]piperazin-1-yl]-N,N-diethylpyridazine-3-carboxamide]
ASMS ratio (%) n = 1: −1.0%
ASMS ratio (%) n = 2: 1.5%

CCOc1cncc(C#Cc2ccccc2C(=O)N2CCN(c3ccc(C(=O)N(CC)CC)nn3)CC2)c1 [B4J008-01, 6-[4-[2-[2-(5-Ethoxypyridin-3-yl)ethynyl]benzoyl]piperazin-1-yl]-N,N-diethylpyridazine-3-carboxamide]
ASMS ratio (%) n = 1: 0.0%
ASMS ratio (%) n = 2: 0.0%

CCOc1cccc(C#Cc2cncc(C(=O)N3CCN(c4ccc(C(=O)N(CC)CC)nn4)CC3)c2)c1 [B4J009-01, 6-[4-[5-[2-(3-Ethoxyphenyl)ethynyl]pyridine-3-carbonyl]piperazin-1-yl]-N,N-diethylpyridazine-3-carboxamide]
ASMS ratio (%) n = 1: 0.0%
ASMS ratio (%) n = 2: 0.0%

CCOc1cncc(C#Cc2cncc(C(=O)N3CCN(c4ccc(C(=O)N(CC)CC)nn4)CC3)c2)c1 [B4J010-01, 6-[4-[5-[2-(5-Ethoxypyridin-3-yl)ethynyl]pyridine-3-carbonyl]piperazin-1-yl]-N,N-diethylpyridazine-3-carboxamide]
ASMS ratio (%) n = 1: 0.0%
ASMS ratio (%) n = 2: 2.3%

CCOc1cccc(-c2ccccc2CCC(=O)N2CCN(c3ccc(C(=O)N(CC)CC)nn3)CC2)c1 [B4J011-01, 6-[4-[3-[2-(3-Ethoxyphenyl)phenyl]propanoyl]piperazin-1-yl]-N,N-diethylpyridazine-3-carboxamide]
ASMS ratio (%) n = 1: −0.1%
ASMS ratio (%) n = 2: −0.9%

CCOc1cncc(-c2ccccc2CCC(=O)N2CCN(c3ccc(C(=O)N(CC)CC)nn3)CC2)c1 [B4J012-01, 6-[4-[3-[2-(5-Ethoxypyridin-3-yl)phenyl]propanoyl]piperazin-1-yl]-N,N-diethylpyridazine-3-carboxamide]
ASMS ratio (%) n = 1: −1.1%
ASMS ratio (%) n = 2: −0.8%

CCOc1cccc(-c2ccc(C(=O)N3CCN(c4ccc(C(=O)N(CC)CC)nn4)CC3)c3ccccc23)c1 [B4J013-01, 6-[4-[4-(3-Ethoxyphenyl)naphthalene-1-carbonyl]piperazin-1-yl]-N,N-diethylpyridazine-3-carboxamide]
ASMS ratio (%) n = 1: 2.0%
ASMS ratio (%) n = 2: 3.7%

CCOc1cncc(-c2ccc(C(=O)N3CCN(c4ccc(C(=O)N(CC)CC)nn4)CC3)c3ccccc23)c1 [B4J014-01, 6-[4-[4-(5-Ethoxypyridin-3-yl)naphthalene-1-carbonyl]piperazin-1-yl]-N,N-diethylpyridazine-3-carboxamide]
ASMS ratio (%) n = 1: 0.0%
ASMS ratio (%) n = 2: −0.8%

CCOc1cccc(-c2cc(C(=O)N3CCN(c4ccc(C(=O)N(CC)CC)nn4)CC3)cc(C(C)(C)C)c2)c1 [B4J015-01, 6-[4-[3-tert-Butyl-5-(3-ethoxyphenyl)benzoyl]piperazin-1-yl]-N,N-diethylpyridazine-3-carboxamide]
ASMS ratio (%) n = 1: 0.0%
ASMS ratio (%) n = 2: 0.0%
